Measured values as given in PubChem BioAssay (NCI).
Values joined by “and” are separate entries in the source; they are usually repeats but may differ in a detail not shown here. Identical values can stand only once.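 Growth conditions: 96-well plates. Treatment: test compound, 48 hours, 5 concentrations. Analysis: linear interpolation between bracketing concentrations; unreached endpoints set to highest concentration. Abbreviation: GI50, concentration required for 50% inhibition of growth. TGI: concentration producing complete growth inhibition.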

Legend:
Test in all cases: NCI anticancer screen, dose series, 48 h
MDA-MB-231 breast = system: MDA-MB-231 breast
MCF7 breast = system: MCF7 breast
HOP-18 NSCLC = system: HOP-18 NSCLC
DMS 114 small cell lung = system: DMS 114 small cell lung
NCI-H460 lung = system: NCI-H460 lung
K-562 leukemia = system: K-562 leukemia
T-47D breast = system: T-47D breast
SF-295 CNS = system: SF-295 CNS
KM20L2 colon = system: KM20L2 colon
SN12C renal = system: SN12C renal

COC1=C(NC(C)=O)C(=O)c2nc3n(c2C1=O)CCC3
TGI (MDA-MB-231 breast): 27.1 µM
TGI (MCF7 breast): 47.1 µM
TGI (HOP-18 NSCLC): 39.1 µM
TGI (DMS 114 small cell lung): 25 µM
TGI (NCI-H460 lung): > 76 µM
TGI (K-562 leukemia): > 65.1 µM
TGI (T-47D breast): 72.7 µM
TGI (SF-295 CNS): 40.3 µM
TGI (KM20L2 colon): > 100 µM
TGI (SN12C renal): 32.3 µM

Nc1ncnc2c1ncn2C1OC(CO)C(O)C1O (stereo not drawn)
GI50 (MDA-MB-231 breast): 5.91 µM
TGI (MDA-MB-231 breast): > 100 µM and 24.6 µM
TGI (HOP-18 NSCLC): > 399 µM
TGI (DMS 114 small cell lung): > 437 µM
GI50 (NCI-H460 lung): 4.23 µM
TGI (NCI-H460 lung): 181 µM and 32.2 µM
TGI (K-562 leukemia): > 450 µM
GI50 (T-47D breast): 0.738 µM
TGI (T-47D breast): > 100 µM and 13.5 µM
GI50 (SF-295 CNS): > 100 µM and 215 µM and 32.6 µM
TGI (SF-295 CNS): > 450 µM
TGI (KM20L2 colon): > 450 µM
GI50 (SN12C renal): 16 µM
TGI (SN12C renal): > 100 µM and 393 µM and 97.6 µM

CC(=O)OC1CC[C@@]2(C)C(CC(OC3OC(CO)C(O)C(O)C3O)[C@]3(C)C2CCC24CC23CC[C@H]4C(C)CC(O)[C@@H](O)C(C)(C)O)C1(C)C (stereo partly drawn)
TGI (HOP-18 NSCLC): 41 µM
TGI (DMS 114 small cell lung): 20.6 µM
TGI (NCI-H460 lung): > 50 µM
TGI (K-562 leukemia): 43.4 µM
TGI (SF-295 CNS): > 50 µM
TGI (KM20L2 colon): > 50 µM
TGI (SN12C renal): 30.7 µM

COC1=C(C(=O)OC(C)(C)C)C23CCCCC2(C(C(=O)OC(C)(C)C)=C(OC)C3C(=O)OC(C)(C)C)C1C(=O)OC(C)(C)C (stereo not drawn)
TGI (HOP-18 NSCLC): > 100 µM
TGI (DMS 114 small cell lung): > 100 µM
TGI (NCI-H460 lung): > 100 µM
TGI (K-562 leukemia): > 100 µM
TGI (SF-295 CNS): > 100 µM
TGI (KM20L2 colon): > 100 µM
TGI (SN12C renal): > 100 µM
